Laboratory results: publication PMC3071873 (Journal of medicinal chemistry, 2010)
“And” between values parts separate entries of the source, which are not always exact repeats. Identical values can stand only once.

What was measured:
[1] = target: T1, human MAO B (Homo sapiens, UniProt P27338); test: Inhibition of purified recombinant human MAO B; type: biochemical; conditions: versus safinamide (ref 12)
T1 sequence (P27338 1-520): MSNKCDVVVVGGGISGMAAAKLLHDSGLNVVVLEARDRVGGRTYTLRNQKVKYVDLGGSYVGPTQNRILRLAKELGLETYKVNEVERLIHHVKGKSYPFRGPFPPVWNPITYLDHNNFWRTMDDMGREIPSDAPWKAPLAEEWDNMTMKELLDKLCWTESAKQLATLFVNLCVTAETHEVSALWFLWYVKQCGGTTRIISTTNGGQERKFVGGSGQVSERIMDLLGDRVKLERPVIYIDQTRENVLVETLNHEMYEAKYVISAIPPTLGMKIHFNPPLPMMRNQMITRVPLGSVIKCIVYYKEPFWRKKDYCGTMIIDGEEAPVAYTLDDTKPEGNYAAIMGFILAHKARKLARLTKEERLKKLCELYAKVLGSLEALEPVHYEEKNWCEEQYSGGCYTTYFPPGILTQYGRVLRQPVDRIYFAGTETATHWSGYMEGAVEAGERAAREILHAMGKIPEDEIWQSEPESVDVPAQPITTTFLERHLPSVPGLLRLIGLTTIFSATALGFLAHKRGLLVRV

[2] = target: rat monoamine oxidase (MAO) B; conditions: weak inhibitor; cited from earlier work
[3] = tested on: mouse MAO B; conditions: membrane-bound mouse MAO B; cited from earlier work
[4] = tested on: toxic effect of 1-methyl-4-phenyl-tetrahydropyridine (MPTP); conditions: mice; cited from earlier work
[5] = humans, daily dosage of 25 mg; cited from earlier work
[6] = cited from earlier work
[7] = storage in solution; oxidative or hydrolytic degradation; cited from earlier work

Which “weaker Ki value with human MAO B compared to safinamide” value [1] does the source give for NS(=O)(=O)Cc1noc2ccccc12 [Zonisamide, 1,2-benzisoxazole-3-methanesulfonamide] here?
Its value is ~ 6 fold.

What about the Ki [2] of the same molecule?
The Ki was 660 µM.

What about the IC50 [3] of the same molecule?
Its IC50 is 25 µM.

And the “effect on MPTP toxicity” value [4]?
Its value is “attenuates the toxic effect”.

And the “plasma (serum) concentration” value [5]?
Its value is ~ 0.6 μM and 0.6 μM.

And the “brain tissue versus plasma concentrations” value [6]?
Its value is “higher in brain tissues”.

And the “stability of aged solutions” value [7]?
The value was “lose inhibition potency on storage in solution”.
